Measurements published in US9302999B2, “Substituted triazoles as herbicides” (E. I. DU PONT DE NEMOURS AND COMPANY, priority 2012, dated 2016).

Legend:
Assay type in all cases: in vivo
[1] = test system: foxtail, green (green foxtail, Setaria viridis); experiment: Test C pre-/postemergence: foxtail, green
Outline: (§1)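 Visual injury scored 0–100 (100 = complete control) against untreated controls after 13–15 greenhouse days. Surfactant-containing solvent formulations applied either to soil after sowing (loam/sand) or over 1- to 4-leaf plants, 2–18 cm tall.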

[2] = test system: bermudagrass (Cynodon dactylon); experiment: Test C pre-/postemergence: bermudagrass
Outline: as §1

[3] = test system: surinam grass (Brachiaria decumbens); experiment: Test C pre-/postemergence: surinam grass
Outline: as §1

[4] = test system: cocklebur (common cocklebur, Xanthium strumarium); experiment: Test C pre-/postemergence: cocklebur
Outline: as §1

[5] = test system: goosegrass (Eleusine indica); experiment: Test C pre-/postemergence: goosegrass
Outline: as §1

[6] = test system: nightshade (eastern black nightshade, Solanum ptycanthum); experiment: Test C pre-/postemergence: nightshade; conditions: Preemergence
Outline: as §1

[7] = test system: common (oilseed) sunflower (Helianthus annuus); experiment: Test C pre-/postemergence: sunflower; conditions: Preemergence
Outline: as §1

[8] = test system: barley (winter barley, Hordeum vulgare); experiment: Test C postemergence: barley
Outline: (§2)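 Plants at the 1- to 4-leaf stage (2 to 18 cm tall), grown in pots of peat moss/vermiculite planting medium, received postemergence applications of the formulated test chemicals. After 13 to 15 days in a greenhouse, injury was scored visually versus controls from 0 (no effect) to 100 (complete control).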

[9] = test system: canarygrass (Phalaris minor); experiment: Test C postemergence: canarygrass
Outline: as §2

[10] = test system: windgrass (Apera spica-venti); experiment: Test C postemergence: windgrass
Outline: as §2

[11] = test system: deadnettle (henbit deadnettle, Lamium amplexicaule); experiment: Test C postemergence: deadnettle
Outline: as §2

[12] = Postemergence, 31 g ai/ha, scale 0 to 100 (0 no effect, 100 complete control)
[13] = Postemergence, 62 g ai/ha, scale 0 to 100 (0 no effect, 100 complete control)
[14] = Postemergence, 125 g ai/ha, scale 0 to 100, 0 no effect, 100 complete control
[15] = Postemergence, 250 g ai/ha, scale 0 to 100
[16] = Preemergence, 31 g ai/ha, scale of 0 to 100, 0 is no effect, 100 is complete control
[17] = Preemergence, 62 g ai/ha, scale of 0 to 100, 0 is no effect, 100 is complete control
[18] = Preemergence, 125 g ai/ha, scale 0 to 100, 0 no effect, 100 complete control
[19] = Preemergence, 250 g ai/ha, scale 0 to 100, 0 no effect, 100 complete control
[20] = 31 g ai/ha, scale of 0 to 100, 0 is no effect, 100 is complete control
[21] = 62 g ai/ha, scale of 0 to 100, 0 is no effect, 100 is complete control
[22] = 125 g ai/ha, scale 0 to 100, 0 no effect, 100 complete control
[23] = 250 g ai/ha, scale 0 to 100, 0 no effect, 100 complete control
[24] = 31 g ai/ha, scale 0 to 100 (0 no effect, 100 complete control)
[25] = 62 g ai/ha, scale 0 to 100 (0 no effect, 100 complete control)

Cc1nn(-c2ccc(C(F)(F)F)c(F)c2)nc1Oc1ccnc(C(F)(F)F)c1 [Compound 148]
30: Plant response rating, Bermudagrass [2, 13] | Plant response rating, Surinam Grass [3, 15]
40: Plant response rating, Goosegrass [5, 15] | Plant response rating, Barley [8, 22] | Plant response rating, Canarygrass [9, 24]
0: Plant response rating, Sunflower [7, 20] | Plant response rating, Sunflower [7, 21]
20: Plant response rating, Surinam Grass [3, 12] | Plant response rating, Surinam Grass [3, 13]
100: Plant response rating, Foxtail, Green [1, 14] | Plant response rating, Foxtail, Green [1, 15] | Plant response rating, Bermudagrass [2, 17] | Plant response rating, Bermudagrass [2, 18] | Plant response rating, Bermudagrass [2, 19] | Plant response rating, Surinam Grass [3, 19] | Plant response rating, Goosegrass [5, 19] | Plant response rating, Windgrass ([10]; 250 g ai/ha, scale 0 to 100) | Plant response rating, Deadnettle [11, 22] | Plant response rating, Deadnettle ([11]; 250 g ai/ha, scale 0 to 100)
98: Plant response rating, Foxtail, Green [1, 13] | Plant response rating, Bermudagrass [2, 16] | Plant response rating, Cocklebur [4, 13] | Plant response rating, Cocklebur [4, 14] | Plant response rating, Goosegrass [5, 18] | Plant response rating, Windgrass [10, 22]
60: Plant response rating, Surinam Grass [3, 16] | Plant response rating, Nightshade [6, 21] | Plant response rating, Canarygrass [9, 25] | Plant response rating, Windgrass [10, 24]
95: Plant response rating, Foxtail, Green [1, 16] | Plant response rating, Foxtail, Green [1, 17] | Plant response rating, Foxtail, Green [1, 18] | Plant response rating, Foxtail, Green [1, 19] | Plant response rating, Goosegrass [5, 17] | Plant response rating, Canarygrass [9, 22] | Plant response rating, Canarygrass ([9]; 250 g ai/ha, scale 0 to 100) | Plant response rating, Deadnettle [11, 24] | Plant response rating, Deadnettle [11, 25]
85: Plant response rating, Cocklebur [4, 12] | Plant response rating, Nightshade [6, 22] | Plant response rating, Nightshade [6, 23]
75: Plant response rating, Surinam Grass [3, 17] | Plant response rating, Surinam Grass [3, 18]
15: Plant response rating, Goosegrass [5, 13]
90: Plant response rating, Goosegrass [5, 16]
25: Plant response rating, Surinam Grass [3, 14] | Plant response rating, Goosegrass [5, 14] | Plant response rating, Nightshade [6, 20]
45: Plant response rating, Barley ([8]; 250 g ai/ha, scale 0 to 100)
10: Plant response rating, Bermudagrass [2, 12] | Plant response rating, Cocklebur [4, 16] | Plant response rating, Sunflower [7, 22] | Plant response rating, Sunflower [7, 23]
80: Plant response rating, Foxtail, Green [1, 12] | Plant response rating, Windgrass [10, 25]
55: Plant response rating, Bermudagrass [2, 15]
50: Plant response rating, Bermudagrass [2, 14]
35: Plant response rating, Barley [8, 24] | Plant response rating, Barley [8, 25]
